Source: patent publication US11841360B1, “Systems, devices, and methods for ex vivo assessment of responses to multiple therapeutic agents” (Oregon Health & Science University, priority 2018, dated 2023)

Columns and labels:
MMTV-PyMT tumors = experiment: Multiplex nanodose assay (MNA): implantable microdevice in tumor, CC3/MHC-I IHC and multiplex IHC adjacent to the drug-releasing well; assay type: in vivo, mouse; details: mIHC, 3 days
From the text: Multiplex nanodose assay (MNA) system and translation to breast cancer patients: The illustrated microdevice (FIG. 6A) is a non-toxic 4×0.8 mm resin cylinder with eighteen 200 μm deep reservoirs, that are packed with active compounds (drugs or drug combinations) in solid form. The device is implanted and stays in the tumor tissue for up to 8 days; after which the tumor/tissue surrounding the device is harvested with the device in place and formalin fixed and paraffin embedded (FFPE). The tumor tissue is analyzed adjacent to each drug well using multiplex IHC (mIHC) with antibodies that interrogate one or more of cleaved caspase activity, epithelial, mesenchymal, endothelial status, as well as immune composition and activity. […] Signal of individual markers are merged and the overlap is quantified.
(FIG. 8A). […] Mean intensity value of the CC3 signal was measured adjacent to the drug releasing reservoir and was normalized to control PEG only loaded reservoir. […] (n=3 regions of interest in one sample for (FIG. 8F) and n=3 drug loaded wells for (FIG. 8D); significance was calculated by a two-tailed t-test with equal variance. Of note, early microdevice studies validated each well to be a biological replicate due to heterogeneous nature of tumors in general (Jonas et al., Sci Transl. Med. 7, 284ra59, 2015). Microfluidic ex vivo platform maintains the viability of the primary mouse tumor tissue. […]

[1] = test system: immunocompetent mouse models of triple negative and HER2+ breast cancer with late stage spontaneously developing tumors; experiment: MNA small scale screening using 5 FDA approved drugs, CC3 and multiplex IHC; assay type: in vivo; details: for infiltration of cytotoxic neutrophils: mIHC close to the drug releasing well
From the text: Panobinostat induces immunogenic cell death associated with Neuropilin-1 neutrophil infiltration: We have developed a novel pre-clinical model system—the Multiplex Nanodose Assay (MNA)—that enables a comprehensive single cell analysis of drug-mediated effects in complex tumor microenvironment (TME). The MNA is based on a recently developed implantable microdevice that performs drug sensitivity testing of multiple drugs at once inside a living tissue (FIGS. 18A and 18B) (Jonas et al., Sci Transl Med 7:284ra57, 2015; Watson et al., Cell Syst 1-14, 2018, doi.org/10.1016/j.cels.2018.02.001). The drugs are passively released into distinct tumor regions and we analyze the drug mediated effects in close proximity to the drug releasing well by multiplex immunohistochemistry (mIHC) (FIG. 18C). This is a sequential IHC staining on a single formalin fixed paraffin embedded (FFPE) tissue for multiparametric characterization of single cells similar to flow cytometry, except that the cells are studies in their natural intact environment (Tsujikawa et al., Cell Rep 19:203-17, 2017; Chang et al., Proc Annu Int Conf IEEE Eng Med Biol Soc EMBS. 4046-9, 2017). The spatial relation of the functionally different populations facilitates identification of the drug-mediated cellular mechanisms. This knowledge can be then translated to rapidly identify rational combination treatment strategies.
With the MNA, we have performed a small scale screening using 5 FDA approved drugs in immunocompetent mouse models of triple negative and HER2+ breast cancer with late stage spontaneously developing tumors. […]
Since panobinostat-mediated effects in vivo are likely linked to effective anti-tumor immunity and increased response to PD-1 blockade therapy, we took a closer look at the immediate interaction between dying tumor cells and tumor microenvironment. […] In the multiplex readout panel, we incorporated stains that interrogate basic drug-sensitivity testing, epithelial, mesenchymal, endothelial compartment, but mainly multiple markers of immune composition and activity. […]

BT474 tumors = details: HER2+ luminal-like BT474 tumors, with NRG1b; cited from earlier work
JIMT1 = details: HER2+ basal-like JIMT1, with HGF; cited from earlier work

## Cc1[nH]c2ccccc2c1CCNCc1ccc(/C=C/C(=O)NO)cc1 [panobinostat]
MMTV-PyMT tumors
  infiltrate of cytotoxic neutrophils at the reservoir: heavy infiltrate of cytotoxic neutrophils
[1]; at the panobinostat well
  share of Neuropilin-1 positive cells that are cytotoxic neutrophils (Myeloperoxidase staining): ~85%
[1]
  infiltration of cytotoxic neutrophils: increased infiltration of cytotoxic neutrophils
[1]; listed as Panobinostat
  infiltration of cytotoxic neutrophils: robust increase of neutrophils

## CCOc1cc2ncc(C#N)c(Nc3ccc(OCc4ccccn4)c(Cl)c3)c2cc1NC(=O)/C=C/CN(C)C [Neratinib]
BT474 tumors
  proliferation under TKI in presence of neuregulin-1b (NRG1b): restores the proliferation
JIMT1
  apoptosis under TKI in presence of hepatocyte growth factor (HGF): decreasing apoptosis to normal levels

## CS(=O)(=O)CCNCc1ccc(-c2ccc3ncnc(Nc4ccc(OCc5cccc(F)c5)c(Cl)c4)c3c2)o1 [Lapatinib]
BT474 tumors
  proliferation under TKI in presence of neuregulin-1b (NRG1b): restores the proliferation
JIMT1
  apoptosis under TKI in presence of hepatocyte growth factor (HGF): decreasing apoptosis to normal levels
